The values that follow come from patent US12667724B2, “Combination therapy for the treatment of depression” (Flow Neuroscience, Inc., priority 2022, dated 2026).

Test [1] is described as follows: Weekly MADRS-s self-assessment of MDD subjects on a prescribed antidepressant combined with home tDCS sessions (Example 2). The test is classed as in vivo, human. Conditions: for effectiveness in reducing symptoms of depression (change in MADRS-s) compared to fluoxetine: combined with tDCS, Week 6. The source says: In this example, a subject completed a MADRS-s questionnaire at baseline (defined as a time preceding initiation of neurostimulation) to determine a starting measurement to be used in an assessment of treatment efficacy. Ideally, baseline measures were made close to the period of time in which the first neurostimulation session began. The subject completed the same MADRS-s questionnaire weekly during a period of ongoing treatment comprising administering of a prescribed pharmacologic antidepressant agent and delivery to the subject of plurality tDCS sessions. The number of and date completed of each tDCS session was recording in order to analyze subjects according to how often they successfully completed tDCS sessions as part of their treatment regimens. Subjects were parcellated into groups of 1) depression symptoms absent, 2) mild depression, 3) moderate depression, or 4) severe depression to further enable analysis of changes in MADRS-s score according to severity of depression and adherence to the recommended tDCS session schedule. […]
Subjects were provided with a tDCS neurostimulation device, instructions of use, and an program capable of being run on a handheld electronic device which provided instructions, recorded responses to various questionnaires completed by the subject, and recorded information regarding the tDCS stimulation sessions completed by the user. Amongst the tDCS stimulation session information recorded was the date of each session completed, the time of day of each completed session, the duration of each completed session, the intensity of electrical stimulation in each session, the latency from the most recently completed session to the previous session.
Subjects completed a MADSR-s assessment at baseline prior to their first tDCS session. […] In this treatment tracking questionnaire, subjects recorded if their specific antidepressant agent or category of antidepressant had changed. […] Subjects also recorded if the dosage administered of the antidepressant medication had changed in the past month. […]

In test [2] the test system is serotonin reuptake and norepinephrine reuptake. The conditions noted are these: cited from earlier work.

Entries after “also recorded” stand apart in the source; their conditions may differ.

In the case of `CN[C@H]1CC[C@@H](c2ccc(Cl)c(Cl)c2)c2ccccc21` [Sertraline, sertraline], the “effectiveness in reducing symptoms of depression (change in MADRS-s) compared to fluoxetine” value in test [1] is “significant difference; also recorded: significantly better”.

With `COc1ccc(C(CN(C)C)C2(O)CCCCC2)cc1` (centres unmarked) [Venlafaxine, venlafaxine], in test [1] (Week 6 after initiation of treatment, Fluoxetine vs. the labelled agent, each combined with tDCS, irrespective of tDCS adherence), the “Result of ANOVA of change in MADRS-s score” value was “Approaching”. The “effectiveness in reducing symptoms of depression (change in MADRS-s) compared to fluoxetine” value in test [1] was “approaching significance”.

As for `CN(C)CC(c1ccc(O)cc1)C1(O)CCCCC1` (centres unmarked) [desvenlafaxine], in test [2], the “selectivity for serotonin reuptake inhibition than norepinephrine reuptake inhibition” value is 10 fold.

Turning to `CNCC[C@H](Oc1cccc2ccccc12)c1cccs1` [duloxetine], the “selectivity for serotonin reuptake inhibition than norepinephrine reuptake inhibition” value in test [2] is given as 10 fold.
